Data on 44 molecules can be found in patent US6784137B2, “6-aryl-4-aminopicolinates and their use as herbicides” (Dow AgroSciences LLC, priority 2001, dated 2004).

On to `Nc1cc(-c2ccc(CO)cc2)nc(C(=O)O)c1Cl` [Compound 159, 4-Amino-3-chloro-6-(4-hydroxymethylphenyl)pyridine-2-carboxylic acid], for which the melting point (as a rule, the temperature, or range, at which the solid turns liquid) fell in the range of 181 to 182 °C.
With `COC(=O)c1nc(-c2cc3ccccc3s2)cc(NC(C)=O)c1Cl` [Compound 97, Methyl 4-acetamido-3-chloro-6-(2-benzothienyl)pyridine-2-carboxylate], the melting point was in the range of 184 to 185 °C.
For `COC(=O)c1nc(-c2ccc(C(C)C)cc2)cc(N)c1Cl` [Compound 35, Methyl 4-amino-3-chloro-6-(4-isopropylphenyl)pyridine-2-carboxylate] the value was 92 to 93 °C; for `COC(=O)c1nc(-c2cnn(C)c2)cc(N)c1Cl` [Compound 124, Methyl 4-amino-3-chloro-6-(1-methyl-1H-pyrazol-4-yl)pyridine-2-carboxylate], 174 to 176 °C.
Molecule `Nc1cc(-c2cnccn2)nc(C(=O)O)c1Cl` [Compound 220, 4-Amino-3-chloro-6-(2-pyrazinyl)pyridine-2-carboxylic acid] had a melting point of 172 to 173 °C.
Under `COC(=O)c1nc(-c2cc(C(F)(F)F)cc(C(F)(F)F)c2)cc(N)c1Cl` [Compound 46, Methyl 4-amino-3-chloro-6-(3,5-bis-(trifluoromethyl)phenyl)pyridine-2-carboxylate] stands 139 to 140 °C; under `COC(=O)c1nc(-c2ccc(Cl)c(Cl)c2)cc(N)c1Cl` [Compound 40, Methyl 4-amino-3-chloro-6-(3,4-dichlorophenyl)pyridine-2-carboxylate], 170 °C; under `Nc1cc(-c2ccc3c(c2)CCC3)nc(C(=O)O)c1Cl` [Compound 188, 4-Amino-3-chloro-6-(5-indanyl)pyridine-2-carboxylic acid], 204 to 205 °C.
Under `COc1ccc(-c2nc(C(=O)O)c(Cl)c(N)c2Cl)cc1` [Compound 134, 4-Amino-3,5-dichloro-6-(4-methoxyphenyl)pyridine-2-carboxylic acid] stands 139 to 140 °C (dec.); under `COC(=O)c1nc(-c2ccc(OC)cc2)c(Cl)c(N)c1Cl` [Compound 15, Methyl 4-amino-3,5-dichloro-6-(4-methoxyphenyl)pyridine-2-carboxylate], 107 to 109 °C.
Under `COc1ncc(-c2cc(N)c(Cl)c(C(=O)O)n2)cn1` [Compound 239, 4-Amino-3-chloro-6-(2-methoxy-5-pyrimidinyl)pyridine-2-carboxylic acid] stands 153 °C; under `COC(=O)c1nc(-c2cccnc2)cc(N)c1Cl` [Compound 102, Methyl 4-amino-3-chloro-6-(3-pyridyl)pyridine-2-carboxylate], 144 to 146 °C; under `COC(=O)c1nc(-c2ccco2)c(Cl)c(N)c1Cl` [Compound 104, Methyl 4-amino-3,5-dichloro-6-(2-furanyl)pyridine-2-carboxylate], 116 to 117 °C.
`COC(=O)c1nc(-c2cccs2)cc(N)c1Cl` [Compound 106, Methyl 4-amino-3-chloro-6-(2-thienyl)pyridine-2-carboxylate]: the melting point is 138 to 139 °C.
As for `COC(=O)c1nc(-c2ccsc2)cc(NC(C)=O)c1Cl` [Compound 101, Methyl 4-acetamido-3-chloro-6-(3-thienyl)pyridine-2-carboxylate], the melting point was found to be 133 °C.
Regarding `Nc1cc(-c2ccc(F)cc2)nc(C(=O)O)c1Cl` [Compound 156, 4-Amino-3-chloro-6-(4-fluorophenyl)pyridine-2-carboxylic acid], the melting point lay in the range of 170 to 171 °C.
Under `COC(=O)c1nc(-c2cnco2)cc(N)c1Cl` [Compound 7, methyl 4-amino-3-chloro-6-(5-oxazolyl)pyridine-2-carboxylate] stands 166 to 170 °C; under `COc1ccc(-c2cc(N)c(Cl)c(C(=O)O)n2)cn1` [Compound 213, 4-Amino-3-chloro-6-(6-methoxy-3-pyridinyl)pyridine-2-carboxylic acid], 110 °C (dec.).
`COC(=O)c1nc(-c2c(C)noc2C)cc(N)c1Cl` [Compound 100, Methyl 4-amino-3-chloro-6-(3,5-dimethyl-4-isoxazolyl)pyridine-2-carboxylate] registered a melting point of 143 °C.
For the molecule `COC(=O)c1nc(-c2c(F)cccc2F)cc(NC(C)=O)c1Cl` [Compound 55, Methyl 4-acetamido-3-chloro-6-(2,6-difluorophenyl)pyridine-2-carboxylate], the melting point was 156 to 157 °C.
Under `COC(=O)c1nc(-c2ccc3c(c2)CCC3)cc(NC(C)=O)c1Cl` [Compound 74, Methyl 4-acetamido-3-chloro-6-(5-indanyl)pyridine-2-carboxylate] stands 132 to 134 °C.
For the molecule `Nc1cc(-c2nccs2)nc(C(=O)O)c1Cl` [Compound 222, 4-Amino-3-chloro-6-(2-thiazolyl)pyridine-2-carboxylic acid], the melting point lay in the range of 184 to 185 °C.
Under `COC(=O)c1nc(-c2ccc(Cl)c(C)c2)cc(N)c1Cl` [Compound 38, Methyl 4-amino-3-chloro-6-(4-chloro-3-methylphenyl)pyridine-2-carboxylate] stands 155 to 156 °C; under `COC(=O)c1nc(-c2cc(Cl)c(C)cc2F)cc(N)c1Cl` [Compound 79, Methyl 4-amino-3-chloro-6-(5-chloro-2-fluoro-4-methylphenyl)pyridine-2-carboxylate], 108 to 110 °C; under `Nc1cc(-c2c(F)cccc2F)nc(C(=O)O)c1Cl` [Compound 169, 4-Amino-3-chloro-6-(2,6-difluorophenyl)pyridine-2-carboxylic acid], 165 to 166 °C.
In the case of `COC(=O)c1nc(-c2cccs2)c(Cl)c(N)c1Cl` [Compound 105, Methyl 4-amino-3,5-dichloro-6-(2-thienyl)pyridine-2-carboxylate], the melting point is 132 °C.
Molecule `CCOC(=O)c1nc(-c2ccc(C)cc2)cc(N)c1Cl` [Compound 263, Ethyl 4-amino-3-chloro-6-(4-methylphenyl)pyridine-2-carboxylate] came in with a melting point of 129 to 130 °C.
In the case of `COC(=O)c1nc(-c2ccc(OC(F)(F)F)cc2)cc(N)c1Cl` [Compound 56, Methyl 4-amino-3-chloro-6-[4-(trifluoromethoxy)phenyl]pyridine-2-carboxylate], the melting point was 119 to 120 °C.
`COC(=O)c1nc(-c2cnn(C)c2)cc(NC(C)=O)c1Cl` [Compound 87, Methyl 4-acetamido-3-chloro-6-(1-methyl-1H-pyrazol-4-yl)pyridine-2-carboxylate] returned a melting point of 177 to 178 °C.
For `Nc1cc(-c2nc3ccccc3s2)nc(C(=O)O)c1Cl` [Compound 230, 4-Amino-3-chloro-6-(2-benzothiazolyl)pyridine-2-carboxylic acid] the value was 283 °C.
Under `Nc1cc(-c2ccccc2Cl)nc(C(=O)O)c1Cl` [Compound 140, 4-Amino-3-chloro-6-(2-chlorophenyl)pyridine-2-carboxylic acid] stands 196 to 197 °C; under `COC(=O)c1nc(-c2ccc3c(c2Cl)OCO3)cc(N)c1Cl` [Compound 73, Methyl 4-amino-3-chloro-6-(2-chloro-3,4-methylenedioxyphenyl)pyridine-2-carboxylate], 155 to 156 °C; under `CCCCOC(=O)c1nc(-c2ccc(C)cc2)cc(N)c1Cl` [Compound 249, Butyl 4-amino-3-chloro-6-(4-methylphenyl)pyridine-2-carboxylate], 60 to 62 °C.
For `COC(=O)c1nc(-c2ccc(OC)c(OC)c2)cc(NC(C)=O)c1Cl` [Compound 63, Methyl 4-acetamido-3-chloro-6-(3,4-dimethoxyphenyl)pyridine-2-carboxylate] the value was 153 to 154 °C.
In the case of `Nc1cc(-c2ccsc2)nc(C(=O)O)c1Cl` [Compound 216, 4-Amino-3-chloro-6-(3-thienyl)pyridine-2-carboxylic acid], the melting point was 184 °C.
Under `COC(=O)c1nc(-c2cccc(OC)c2)cc(N)c1Cl` [Compound 24, Methyl 4-amino-3-chloro-6-(3-methoxyphenyl)pyridine-2-carboxylate] stands 122 to 123 °C; under `COC(=O)c1nc(-c2ccccc2Cl)cc(N)c1Cl` [Compound 26, Methyl 4-amino-3-chloro-6-(2-chlorophenyl)pyridine-2-carboxylate], 115 to 117 °C; under `COC(=O)c1nc(-c2ccc3c(c2)CCO3)cc(N)c1Cl` [Compound 77, Methyl 4-amino-3-chloro-6-(2,3-dihydro-5-benzofuranyl)pyridine-2-carboxylate], 143 °C.
For `COC(=O)c1nc(-c2cncnc2)cc(N)c1Cl` [Compound 126, Methyl 4-amino-3-chloro-6-(5-pyrimidinyl)pyridine-2-carboxylate] the value was 195 °C.
Under `CCCCCCCCCCOC(=O)c1nc(-c2ccc(Cl)cc2)c(F)c(N)c1Cl` [Compound 244, Decyl 4-amino-3-chloro-5-fluoro-6-(4-chlorophenyl)pyridine-2-carboxylate] stands 62 to 63 °C.
Consider `COC(=O)c1nc(-c2ccc(Cl)cc2)c(F)c(N)c1Cl` [Compound 14, Methyl 4-amino-3-chloro-5-fluoro-6-(4-chlorophenyl)pyridine-2-carboxylate], for which the melting point is 233 to 236 °C.
For `CC(C)c1ccc(-c2cc(N)c(Cl)c(C(=O)O)n2)cc1` [Compound 147, 4-Amino-3-chloro-6-(4-isopropylphenyl)pyridine-2-carboxylic acid] the value was 142 to 143 °C; for `Nc1cc(-c2ccncc2)nc(C(=O)O)c1Cl` [Compound 209, 4-Amino-3-chloro-6-(4-pyridinyl)pyridine-2-carboxylic acid], 155 °C (dec.); for `Nc1c(Cl)c(C(=O)O)nc(-c2cncs2)c1Cl` [Compound 241, 4-Amino-3,5-dichloro-6-(5-thiazolyl)pyridine-2-carboxylic acid], 175 to 177 °C.
